{"source": "patent US20220408731A1", "about": "“MODIFIED ANTIMICROBIAL PEPTIDES” (priority 2021, published 2022)", "key": {"[1]": {"tested_on": "C. albicans", "assay": "Peptide or protein/Fluconazole combination, MIC and FICI", "settings": "Candida albicans"}, "[2]": {"tested_on": "C. glabrata", "assay": "Peptide or protein/Fluconazole combination, MIC and FICI", "settings": "Nakaseomyces glabratus"}, "[3]": {"tested_on": "P. capsici", "assay": "Antifungal MIC assay in SFM", "type": "cell-based"}, "[4]": {"tested_on": "F. oxysporum", "assay": "Antifungal MIC assay in SFM", "type": "cell-based"}, "[5]": {"tested_on": "Botrytis cinerea"}, "[6]": {"tested_on": "Fusarium graminearum"}, "[7]": {"tested_on": "Coccidioides sp.", "type": "cell-based"}, "[8]": {"tested_on": "C. parapsilosis", "assay": "Antifungal MIC, CLSI M27/M38, half-strength potato dextrose broth", "type": "cell-based, Candida parapsilosis", "settings": "C. parapsilosis ATCC 22019; 24-72 hours", "method": "(§1) Testing for antifungal activity used half-strength potato dextrose broth for peptides and RPMI for comparator antifungals fluconazole and voriconazole. CLSI M27 and M38 methodologies used for to measure MICs. Minimal Inhibitory Concentration (MIC) is the concentration of the compound, protein, or peptide at which there is no significant growth of the microorganism relative to the growth of the microorganism in growth medium lacking the compound, protein, or peptide.\n(§2) […] The concentration range for peptides in potato dextrose broth was 0.06-2 mcg/ml, the concentration range for fluconazole was 0.125-64 mcg/ml, and the concentration range for voriconazole was 0.03-16 mcg/ml. MICs were determined at 24-72 hours."}, "[9]": {"tested_on": "Fusarium (F. solani)", "assay": "Antifungal MIC, CLSI M27/M38, half-strength potato dextrose broth", "type": "cell-based", "settings": "Fusarium F4 (F. solani)", "method": "as §1, §2"}, "[10]": {"tested_on": "Aspergillus fumigatus", "assay": "Antifungal MIC, CLSI M27/M38, half-strength potato dextrose broth", "type": "cell-based", "method": "as §1, §2"}, "[11]": {"tested_on": "P. variotii", "assay": "Antifungal MIC, CLSI M27/M38, half-strength potato dextrose broth", "type": "cell-based", "settings": "P. variotii MYA-363; 24-72 hours", "method": "as §1, §2"}, "[12]": {"tested_on": "C. krusei", "assay": "Antifungal MIC, CLSI M27/M38, half-strength potato dextrose broth", "type": "cell-based", "settings": "C. krusei ATCC 6258; 24-72 hours", "method": "as §1, §2"}, "[13]": {"tested_on": "Candida albicans", "assay": "Antifungal MIC, CLSI M27/M38, half-strength potato dextrose broth", "type": "cell-based", "method": "as §1, §2"}, "[14]": {"tested_on": "Candida auris", "assay": "Antifungal MIC, CLSI M27/M38, half-strength potato dextrose broth", "type": "cell-based", "method": "as §1, §2"}, "[15]": {"tested_on": "Fusarium (F. oxysporum)", "assay": "Antifungal MIC, CLSI M27/M38, half-strength potato dextrose broth", "type": "cell-based", "method": "as §1, §2"}}, "note": "Like-named read-outs stand apart in the source and are kept apart here. Square brackets hold non-standard residues; d marks the D form. Peptide text beside a SMILES is read from it. Dab = NCC[C@H](N)C(=O)O"}
{"smiles": "OC(Cn1cncn1)(Cn1cncn1)c1ccc(F)cc1F", "note": "[Fluconazole]", "values": [{"measurement": "MIC", "setting": "[1]; read-out: MIC alone (μM)", "value": 206, "unit": "µM"}, {"measurement": "MIC", "setting": "[1]; read-out: MIC alone μg/ml", "value": 64, "unit": "µg/mL"}, {"measurement": "MIC", "setting": "[2]; read-out: MIC alone (μM)", "value": 206, "unit": "µM"}, {"measurement": "MIC", "setting": "[2]; read-out: MIC alone μg/ml", "value": 64, "unit": "µg/mL"}]}
{"smiles": "C[C@@H](O)[C@H](NC(=O)[C@H](CS)NC(=O)[C@H](Cc1ccccc1)NC(=O)[C@H](CS)NC(=O)[C@H](CCCNC(=N)N)NC(=O)[C@H](CCCNC(=N)N)NC(=O)[C@H](CCCNC(=N)N)NC(=O)[C@H](Cc1ccccc1)NC(=O)CNC(=O)[C@H](CCCNC(=N)N)NC(=O)[C@H](CS)NC(=O)[C@H](CCCNC(=N)N)NC(=O)CNC(=O)CN)C(=O)N[C@H](C(=O)N[C@@H](Cc1c[nH]cn1)C(=O)N[C@@H](CS)C(N)=O)[C@@H](C)O", "note": "[GMA4C_AC, reference compound] (H-GGRCRGFRRRCFCTTHC-NH2; N-terminus assumed)", "values": [{"measurement": "P. capsici MIC", "setting": "[3]", "value": 1.5, "unit": "µM"}, {"measurement": "F. oxysporum MIC", "setting": "[4]", "value": 6, "unit": "µM"}, {"measurement": "Antifungal activity in presence of 100 mM NaCl or 100 mM KCl", "setting": "[5]", "value": "retain their antifungal activity"}, {"measurement": "B. cinerea MIC", "setting": "[5]", "value": "1.5 to 3.0", "unit": "µM"}, {"measurement": "MIC (μM) Botrytis cinerea", "setting": "[5]", "value": 3, "unit": "µM"}, {"measurement": "MIC Values (μM) against B. cinerea", "setting": "[5]", "value": 3, "unit": "µM"}, {"measurement": "SFM + 2 mM CaCl2 MIC", "setting": "[5]", "value": ">6", "unit": "µM"}, {"measurement": "SFM + 100 mM KCl MIC", "setting": "[5]", "value": 6, "unit": "µM"}, {"measurement": "SFM + 100 mM NaCl MIC", "setting": "[5]", "value": 3, "unit": "µM"}, {"measurement": "SFM MIC", "setting": "[5]", "value": 3, "unit": "µM"}, {"measurement": "F. graminearum MIC", "setting": "[6]", "value": 3, "unit": "µM"}, {"measurement": "MIC (μM) Fusarium graminearum", "setting": "[6]", "value": 3, "unit": "µM"}, {"measurement": "MIC Values (μM) against F. graminearum", "setting": "[6]", "value": 6, "unit": "µM"}]}
{"smiles": "NCC[C@H](NC(=O)CNC(=O)[C@@H](N)Cc1ccccc1)C(=O)N[C@@H](CS)C(=O)N[C@@H](CCN)C(=O)NCC(=O)N[C@@H](Cc1ccccc1)C(=O)N[C@@H](CCN)C(=O)N[C@@H](CCN)C(=O)N[C@@H](CCN)C(=O)N[C@@H](CS)C(=O)N[C@@H](Cc1ccccc1)C(=O)N[C@@H](CS)C(=O)N[C@@H](Cc1c[nH]c2ccccc12)C(=O)N[C@@H](CCN)C(=O)N[C@@H](Cc1c[nH]c2ccccc12)C(=O)N[C@@H](CS)C(N)=O", "note": "[GMA4C_V5A, FG(Dab)C(Dab)GF(Dab)(Dab)(Dab)CFCW(Dab)WC-NH2] (H-FG[Dab]C[Dab]GF[Dab][Dab][Dab]CFCW[Dab]WC-NH2; N-terminus assumed)", "values": [{"measurement": "MIC 100%", "setting": "[7]; Coccidioides sp. Cocci1", "value": 2, "unit": "µg/mL"}, {"measurement": "MIC 100%", "setting": "[7]; Coccidioides sp. Cocci2", "value": 16, "unit": "µg/mL"}, {"measurement": "MIC 100%", "setting": "[7]; Coccidioides sp. DI17-143", "value": 16, "unit": "µg/mL"}, {"measurement": "MIC 100%", "setting": "[8]", "value": 8, "unit": "µg/mL"}, {"measurement": "MIC (μM) Botrytis cinerea", "setting": "[5]", "value": 6, "unit": "µM"}, {"measurement": "MIC Values (μM) against B. cinerea", "setting": "[5]", "value": 3, "unit": "µM"}, {"measurement": "SFM + 2 mM CaCl2 MIC", "setting": "[5]", "value": ">6", "unit": "µM"}, {"measurement": "SFM + 100 mM KCl MIC", "setting": "[5]", "value": ">6", "unit": "µM"}, {"measurement": "SFM + 100 mM NaCl MIC", "setting": "[5]", "value": 6, "unit": "µM"}, {"measurement": "SFM MIC", "setting": "[5]", "value": 6, "unit": "µM"}, {"measurement": "MIC 100%", "setting": "[9]", "value": 8, "unit": "µg/mL"}, {"measurement": "MIC 100%", "setting": "[10]; Aspergillus fumigatus AF293", "value": 32, "unit": "µg/mL"}, {"measurement": "MIC 100%", "setting": "[10]; Aspergillus fumigatus DI15-106", "value": ">32", "unit": "µg/mL"}, {"measurement": "MIC 100%", "setting": "[10]; Aspergillus fumigatus DI15-116", "value": ">32", "unit": "µg/mL"}, {"measurement": "MIC 100%", "setting": "[11]", "value": 4, "unit": "µg/mL"}, {"measurement": "MIC 100%", "setting": "[12]", "value": 8, "unit": "µg/mL"}, {"measurement": "MIC 100%", "setting": "[13]; Candida albicans ATCC 90028", "value": 16, "unit": "µg/mL"}, {"measurement": "MIC 100%", "setting": "[13]; Candida albicans CA3", "value": 8, "unit": "µg/mL"}, {"measurement": "MIC 100%", "setting": "[13]; Candida albicans SC5314", "value": 16, "unit": "µg/mL"}, {"measurement": "MIC 100%", "setting": "[14]; Candida auris DI17-46", "value": 16, "unit": "µg/mL"}, {"measurement": "MIC 100%", "setting": "[14]; Candida auris DI17-47", "value": 16, "unit": "µg/mL"}, {"measurement": "MIC 100%", "setting": "[14]; Candida auris DI17-48", "value": 16, "unit": "µg/mL"}, {"measurement": "MIC 100%", "setting": "[15]; Fusarium F1 (F. oxysporum)", "value": 8, "unit": "µg/mL"}, {"measurement": "MIC 100%", "setting": "[15]; Fusarium F2 (F. oxysporum)", "value": 16, "unit": "µg/mL"}]}
